Results reported in patent US11389423B2, “Pharmaceutical composition, excipient for the composition and use of the composition” (priority 2018, dated 2022).

Assays:
[1] = system: rats with MPTP microinfusion into the substantia nigra; assay: Open field test (motor activity), MPTP model; type: in vivo; details: oral
Protocol: The number of animals per group was ten (10) subjects. This number was estimated based on internationally recognized and scientifically validated protocols. The doses of the CBD-SINT formulation were determined by allometric extrapolation from the average dose used in human patients (600 mg/day, which in a 70 kg individual represents approximately 9 mg/kg), obtaining an average dose of ˜36 mg/kg CBD in rats.
For the calculation of the three doses, the intermediate dose was used as a reference, and then a higher and a lower dose was stipulated on a logarithmic scale. To stipulate the lowest dose, ⅓ of the median dose was used. For the higher dose, a safety factor of 10 times the lower dose was used. Thus, the doses of CBD-SINT used in this trial were: 12, 36 and 120 mg/kg. […]
CBD-SINT and placebo were administered orally (gavage) for 18 days prior to the administration of the neurotoxin by stereotactic surgery, and for another 10 days after surgery. After the administration of the neurotoxin, the behavioral (locomotor activity) and biochemical (brain dopamine dosage) parameters were evaluated after 24 hours and after 10 days. […]
The animals were placed on the central circle of the open field and its behavior evaluated for 5 minutes. […] Each animal was assessed individually, and the device was cleaned between animals with 5% alcohol solution (FIG. 15).

[2] = system: male rabbits; assay: Blood pressure measurement and heart rate; type: in vivo, New Zealand rabbits; details: for heart rate: anesthetized male rabbits
Protocol: Male New Zealand rabbits (n=6 per group) were used for pharmacological safety tests. All tests were performed orally (route recommended for humans) and the investigated parameters were determined after a single administration of CBD-SINT. CBD-SINT doses were determined by allometric extrapolation from the average dose used in human patients (25 mg/kg).
The dose of 51 mg/kg was used as the intermediate dose, stipulating a higher and a lower dose. Three dose ranges were used according to the Guide for Conducting Non-Clinical Toxicology and Pharmacological Safety Studies Necessary for Drug Development (ANVISA, 2013; Version 1.2). Thus, the doses used were 17, 51 and 170 mg/kg of CBD-SINT.
b) Blood pressure measurement, after a 6-h fasting, three doses of CBD-SINT (17, 51 and 170 mg/kg) were administered to different groups of male rabbits by gavage. Placebo was administered to the control group (1 mL/kg). 40 minutes after treatments all rabbits were anesthetized with 10 mg/kg diazepam intramuscularly combined with 115 mg/kg ketamine. Then, the animals received a bolus injection of heparin (50 IU) subcutaneously. Tracheostomy was performed to allow animals to breathe spontaneously. Then, the left carotid artery was isolated, cannulated, and connected to a pressure transducer coupled to a PowerLab recording system (Chart 5.0, ADI Instruments, Castle Hill, Australia). After 15 minutes for hemodynamic stabilization, systolic blood pressure (SBP), diastolic blood pressure (DBP) and mean arterial pressure (MAP) were recorded for another 20 min.

[3] = system: polychromatic erythrocytes; details: rats male and female, 500, 1000 and 2000 mg/kg orally
Protocol: To perform the micronucleus test (Schmid, 1976), different groups of rats (male and female; n=10) received three doses of CBD (500, 1000 and 2000 mg/kg) orally. The negative control group received placebo by gavage and the positive control was treated with cyclophosphamide monohydrate (20 mg/kg—Sigma-Aldrich) intraperitoneally. After 24 hours (cyclophosphamide) and 48 hours (CBD-SINT and vehicle) the end of treatments, the animals were euthanized by decapitation. The femurs were removed, the proximal epiphysis was removed to expose the medullary canal and, with the aid of a 13×4.5 mm needle and 3 mL NaCl solution (150 mM), the marrow was removed, washing the medullary canal with NaCl solution. The material was transferred to glass tubes and centrifuged at 1000 rpm/5 min. After centrifugation, the supernatant was discarded, and the deposit was resuspended with a 4% formaldehyde solution and slightly homogenized with the aid of a Pasteur pipette. A drop of this cell suspension was placed on a clean, dry slide, and then the smear was performed. The slides were dried at room temperature and, after 24 hours, stained with Leishman eosin-methylene blue and subjected to microscopic analysis. To determine the number of micronuclei, 2000 polychromatic erythrocytes were counted per animal (1000 in each slide) using an optical microscope, at 400× magnification. The analysis of the slides was blind and performed by a single evaluator.

## C=C(C)[C@@H]1CCC(C)=C[C@H]1c1c(O)cc(CCCCC)cc1O [CBD-SINT, Cannabidiol]
[1]
  latency time and frequency of standing compared to CBD-FITO in the same concentration: a lower concentration had a more effective result
[2]; 17 mg/kg oral
  heart rate: 285±18 bpm
[2]; 51 mg/kg oral
  heart rate: 279±20 bpm
[2]; 170 mg/kg oral
  heart rate: 275±17 bpm
[2]; anesthetized male rabbits, 17, 51 or 170 mg/kg oral
  blood pressure levels (systolic, diastolic, mean arterial) compared to the control group: did not significantly change
[3]
  ratio of polychromatic/normochromatic erythrocytes (PCE/NCE ratio) vs placebo: did not cause any significant change
[3]; 48 hours
  MNPCE number vs placebo (C-): in a similar way to that found for animals treated only with placebo
